Assay results from article PMC3101243, “Probenecid Inhibits the Human Bitter Taste Receptor TAS2R16 and Suppresses Bitter Perception of Salicin” (PLoS ONE, 2011).
One block for each compound: values may come before it.

What was measured:
Type in all cases: cell-based
[1] = biological target: T1, hTAS2R43 (Homo sapiens, UniProt P59537); assay: calcium flux in transfected HEK-293T cells (with Gα[…]gust44), […] aloin
T1 construct: gene TAS2R43; W35/H212 variant; first 45 amino acids of the rat somatostatin type 3 receptor fused for cell-surface targeting
T1 sequence (P59537 1-309): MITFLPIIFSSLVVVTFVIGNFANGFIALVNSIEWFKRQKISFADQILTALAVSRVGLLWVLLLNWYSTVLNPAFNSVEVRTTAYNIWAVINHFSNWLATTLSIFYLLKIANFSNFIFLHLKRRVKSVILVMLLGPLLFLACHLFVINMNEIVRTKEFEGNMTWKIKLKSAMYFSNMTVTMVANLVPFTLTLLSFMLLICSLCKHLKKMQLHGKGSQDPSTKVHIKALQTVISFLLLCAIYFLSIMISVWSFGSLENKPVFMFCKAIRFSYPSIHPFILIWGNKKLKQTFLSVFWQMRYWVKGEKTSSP

[2] = biological target: T2, hTAS2R38 (Homo sapiens, UniProt P59533, A49P/I296V); assay: calcium flux in transfected HEK-293T cells (with Gα[…]gust44), inhibition of […] PTC response
T2 construct: gene TAS2R38; PAV variant; first 45 amino acids of the rat somatostatin type 3 receptor fused for cell-surface targeting

[3] = biological target: T3, hTAS2R16 (Homo sapiens, UniProt Q9NYV7, R222H); assay: calcium flux in transfected HEK-293T cells (with Gα[…]gust44), inhibition of […] salicin response; dose-response and mutant analysis
T3 construct: gene TAS2R16
T3 sequence (Q9NYV7 1-291 R222H): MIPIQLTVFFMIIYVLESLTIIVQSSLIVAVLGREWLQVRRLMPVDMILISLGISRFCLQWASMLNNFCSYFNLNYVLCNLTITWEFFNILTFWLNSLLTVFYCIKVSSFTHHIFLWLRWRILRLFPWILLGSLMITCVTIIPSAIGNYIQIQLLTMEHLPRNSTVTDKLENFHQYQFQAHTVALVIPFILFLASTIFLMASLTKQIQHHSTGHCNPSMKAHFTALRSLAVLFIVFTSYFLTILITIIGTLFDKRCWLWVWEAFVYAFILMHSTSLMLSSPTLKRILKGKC

[4] = biological target: T3, hTAS2R16; assay: calcium flux agonist dose-response in transfected HEK-293T cells (with Gα[…]gust44)

T2 sequence (P59533 whole entry A49P/I296V, the tested form may be a part): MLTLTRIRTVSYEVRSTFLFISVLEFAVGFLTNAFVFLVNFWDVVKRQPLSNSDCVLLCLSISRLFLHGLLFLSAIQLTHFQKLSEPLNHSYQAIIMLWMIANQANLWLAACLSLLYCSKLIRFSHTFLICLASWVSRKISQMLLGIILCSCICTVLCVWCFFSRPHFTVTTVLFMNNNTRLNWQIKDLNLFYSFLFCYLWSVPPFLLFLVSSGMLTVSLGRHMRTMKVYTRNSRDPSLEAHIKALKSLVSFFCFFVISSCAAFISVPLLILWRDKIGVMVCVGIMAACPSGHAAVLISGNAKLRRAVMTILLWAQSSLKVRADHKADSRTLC

SMILES: O=C1c2c(O)cccc2C([C@@H]2O[C@H](CO)[C@@H](O)[C@H](O)[C@H]2O)c2cc(CO)cc(O)c21 (stereo partly shown) [aloin]
calcium flux in transfected HEK-293T cells (with Gα16gust44), 3 mM aloin [1]: Aloin induced an increase in intracellular calcium in HEK-293T cells expressing hTAS2R43

IC50 [2]: 211 µM | IC50 [3]: 292 µM
SMILES: CCCN(CCC)S(=O)(=O)c1ccc(C(=O)O)cc1 [probenecid, p-(dipropylsulfamoyl)benzoic acid]

EC50 [4]: ~1200 µM
SMILES: OCc1ccccc1O[C@@H]1O[C@H](CO)[C@@H](O)[C@H](O)[C@H]1O [salicin]
